# Key:
# [1] = test system: epididymal white adipose tissue of HFD-fed mice; test: Gene expression (mRNA) in epididymal white adipose tissue of HFD-fed mice; format: in vivo
# Procedure: (§1) A study was conducted to determine if inhibiting Slc7a5 prevents the metabolic response of adipocyte to excess […] intake and obesity. Mice fed with HFD for 3 months were then injected intraperitoneally with either (a) JPH203, a potent Slc7a5 inhibitor, at a dose of 25 mg/kg, or (b) PBS (vehicle) as control, for 15 consecutive days while on HFD (Days 1-15). Mice fed with a normal diet and receiving no injection were included as a comparator.
# To determine if JPH203 affected adipose tissue function, the epididymal and inguinal white adipose tissues were dissected and analyzed 15 days after treatment.
# HFD-fed mice [2] = test: Serum levels of adipokine and cytokines by ELISA in HFD-fed mice; format: in vivo; details: 25 mg/kg intraperitoneally, 15 days, vs control HFD-fed mice
# Procedure: Panels A-G show serum levels of leptin, insulin like growth factor 1 (IGF1), monocyte chemoattractant protein-1 (MCP1), vascular endothelial growth factor (VEGF), interleukin 1 alpha (ILla), interleukin 1 beta (IL1β), interleukin 6, and tumor necrosis factor alpha (TNFa), respectively, in normal diet-fed mice, HFD-fed mice injected with JPH203, and control HFD-fed mice. [“AU”=arbitrary unit; data shown as mean±SEM and significance was determined by one-way analysis of variance (ANOVA) or unpaired two-tailed t-test; *P<0.05, **P<0.01; ***P<0.001, ****P<0.0001.]
# as §1
# Obesity is correlated with chronically high levels of several cytokines which produced primarily by adipose tissues, which play a role in chronic inflammatory states.
# [3] = test system: adipose tissues of HFD-fed mice; test: Nile red and Mitotracker staining of adipose tissues of HFD-fed mice; format: in vivo
# Procedure: [“Epi fat”=epididymal white adipose tissue; “SubQ”=inguinal white adipose tissue; “iBAT”=interscapular brown adipose tissue; data shown as mean±standard error (SE) and significance was determined by one-way ANOVA or unpaired two-tailed t-test; *P<0.05, **P<0.01.]
# as §1
# [4] = test system: differentiated adipocytes 3T3L1 co-cultured with macrophage (RAW 264.7 cells); test: Adipogenesis in co-culture of adipocyte 3T3L1 and macrophage RAW 264.7 cells; format: cell-based
# Procedure: [Data shown as mean±SE and significance was determined by two-way ANOVA (for analysis shown in Panel B) and unpaired two-tailed t-test (for analysis shown in Panels D-G; *P<0.05, ***P<0.001, ****P<0.0001.]
# A study was conducted to determine which aspects of the adipocyte lineage was affected by inhibition of Slc7a5. To this end, pre-adipocytes or differentiated adipocytes 3T3L1 were co-cultured in the presence of macrophage (RAW 264.7 cells). The experimental design is illustrated in FIG. 10, Panel A.
# The study examined expression of PPARγ and mTOR, and Nile red stained lipid droplets, which are indicators of adipogenesis and are shown to increase in differentiated adipocytes compared to preadipocytes.
# HFD-fed mice [5] = test: Toxicity of JPH203 treatment in HFD-fed mice (liver and kidney function, activity, organ mass, whole blood counts); format: in vivo; details: 25 mg/kg intraperitoneally
# Procedure: as §1
# In addition, liver function (AST, ALT), kidney function (creatinine), and effect on bone marrow and immune response (whole blood counts) were tested to examine the toxicity of the pharmacological JPH203 treatment. […] Also, there was no effect of JPH203 treatment on liver, heart, or kidney weight (see FIG. 3, Panel E).
# HFD-fed mice [6] = test: Glucose homeostasis and intraperitoneal glucose tolerance testing in HFD-fed mice; format: in vivo
# Procedure: [data shown as mean±SEM and significance was determined by one-way ANOVA (for analysis shown in Panels A, B, C, D, and G) or multiple unpaired t-test (for analysis shown in Panel F); *P<0.05, **P<0.01, ***P<0.001.]
# as §1
# Mice that were obese due to HFD were hyperglycemic and hyperinsulinemia regardless of fed or fasting status (see FIG. 9, Panels A-D).
# HFD-fed mice [7] = test: Body weight, fat mass and food intake in HFD-fed mice injected with JPH203; format: in vivo; details: 25 mg/kg intraperitoneally
# Procedure: as §1
# [8] = epididymal adipose tissues, vs control HFD-fed mice
# [9] = epididymal white adipose tissue, 15 days after treatment
# [10] = epididymal white adipose tissue, 15 days after treatment, vs control HFD-fed mice
# [11] = HFD-fed mice injected with JPH203
# [12] = epididymal and inguinal white adipose tissues, vs control HFD-fed mice
# [13] = co-culture of 3T3L1 and RAW 264.7 cells
# [14] = fully differentiated adipocytes as compared to the preadipocytes, in the presence of macrophages
# [15] = HFD-fed mice injected with JPH203 vs control HFD-fed mice
compound,measurement,setting,value
"Nc1cc(COc2c(Cl)cc(C[C@H](N)C(=O)O)cc2Cl)c2oc(-c3ccccc3)nc2c1 [JPH203, (S)-2-Amino-3-(4-((5-amino-2-phenylbenzo[d]oxazol-7-yl)methoxy)-3,5-dichlorophenyl)propanoic acid]",genes related to anti-adipogenic factor,[1]; [8],upregulated
same,genes related to energy dissipation/fatty acid β oxidation,[1]; [8],upregulated
same,genes related to fatty acid uptake,[1]; [8],upregulated
same,genes related to glucose uptake/glycolysis,[1]; [8],downregulated
same,genes related to glyceroneogenesis/fatty acid synthesis,[1]; [8],downregulated
same,genes related to lipogenesis,[1]; [8],downregulated
same,genes related to lipolysis,[1]; [8],downregulated
same,genes related to pentose phosphate pathway (NADPH production),[1]; [8],downregulated
same,Hif2α expression (downstream target of mTOR signaling),[1]; [9],decreased
same,Slc7a5 expression,[1]; [9],did not change
same,anti-inflammatory arginase 1 (Arg1) gene expression,[1]; [9],increased
same,proinflammatory nitric oxide synthase 2 (Nos2/Inos) gene expression,[1]; [9],reduced
same,mRNA levels for beiging and browning markers,[1]; [10],increased
same,mRNA levels for general adipogenic markers,[1]; [10],decreased
same,mRNA levels for white adipogenic markers,[1]; [10],decreased
same,serum level of IGF1,HFD-fed mice [2],decreased
same,serum level of IL1α,HFD-fed mice [2],decreased
same,serum level of IL1β,HFD-fed mice [2],decreased
same,serum level of IL6,HFD-fed mice [2],increased
same,serum level of MCP1,HFD-fed mice [2],decreased
same,serum level of TNFα,HFD-fed mice [2],decreased
same,serum level of VEGF,HFD-fed mice [2],decreased
same,serum level of leptin,HFD-fed mice [2],decreased
same,mitochondrial biogenesis in interscapular brown adipose tissues (Mitotracker staining),[3]; [11],significantly increased
same,adipocyte lipid content (Nile red staining),[3]; [12],lower lipid content
same,adipocyte size (Nile red staining),[3]; [12],smaller sized adipocytes
same,adipocyte differentiation,[4]; [13],decreased
same,cell survival / cell death,[4]; [13],does not affect cell survival
same,lipid droplets (Nile red stained),[4]; [13],reduction
same,PPARγ expression,[4]; [14],reduced
same,mTOR expression,[4]; [14],reduced
same,Creatine levels (kidney function),HFD-fed mice [5]; 15 days,in the normal ranges
same,complete blood counts (CBC): effect on bone marrow and immune response,HFD-fed mice [5]; 15 days,no significant effect
same,mice activity (running wheel experiment),HFD-fed mice [5]; 15 days,does not decrease mice activity
same,AST serum level,"HFD-fed mice [5]; 15 days, normal is 13-35 IU/L",in the normal range
same,ALT serum level,"HFD-fed mice [5]; 15 days, normal is 37-88 IU/L",in the normal range
same,Creatine levels compared with control HFD-fed mice,"HFD-fed mice [5]; 15 days, vs control HFD-fed mice",significantly less
same,"liver, heart, or kidney weight",HFD-fed mice [5]; day 15,no effect
same,reduction in blood glucose concentration after glucose administration (IPGTT),HFD-fed mice [6]; [11],significantly faster reduction
same,correlation of weight loss with decreased baseline glucose,HFD-fed mice [6]; HFD-fed mice injected with JPH203 compared with control HFD-fed mice,positively correlated
same,fasting glucose,HFD-fed mice [6]; [15],lower
same,fed glucose,HFD-fed mice [6]; [15],lower
same,glucose tolerance,HFD-fed mice [6]; [15],improved
same,"mass of interscapular brown adipose tissue and epididymal and inguinal white adipose tissue, normal fed mice compared to HFD-fed mice injected with JPH203",HFD-fed mice [7]; at 15 days,not significantly less
same,body weight,"HFD-fed mice [7]; HFD-fed mice, after 15 days, vs HFD-fed mice injected with vehicle (PBS)",significant weight reduction
same,mass of epididymal white adipose tissue,"HFD-fed mice [7]; HFD-fed mice, at 15 days, vs control HFD-fed mice",significantly less
same,appetite suppression (food and water consumption) as contributor to weight loss,"HFD-fed mice [7]; HFD-fed mice, over 15 days",not a major contributing factor

# Source: patent publication US20250262190A1, “USE OF LAT1 INHIBITORS TO TREAT OBESITY” (Georgetown University, priority 2022, published 2025)
